Test results as given in patent US20250152936A1, “METHOD FOR THE TREATMENT OF VASCULAR ANOMALIES BY ADMINISTERING ONE OR MORE SCLEROSING AGENTS AND APPLYING A SERIES OF ELECTRIC PULSES” (IGEA S.P.A., priority 2023, published 2025).

Key:
[1] = test system: venous malformation; assay: Electrosclerotherapy case, Example 2 (patient, photographs, 3 years follow-up)
[2] = test system: venous malformations that did not respond to previous invasive therapies; conditions: 17 patients, cited from earlier work
[3] = test system: symptomatic venous malformation of the left thigh; assay: Electrosclerotherapy case, Example 1 (patient, MRI follow-up); assay type: in vivo, human; conditions: 1.5 mg bleomycin
Procedure: FIGS. 1A and 1C show magnetic resonance of a symptomatic venous malformation of the left thigh in a patient previously treated with surgery and sclerotherapy;
FIGS. 1B and 1D show magnetic resonance of the symptomatic venous malformation of FIG. 1A three months after one electrosclerotherapy session.
A patient with a symptomatic venous malformation of the left thigh, causing swelling, pain, and partial immobility, recurring after surgery and sclerotherapy with Aethoxysklerol was treated with electrosclerotherapy using custom geometry electrodes and 1.5 mg bleomycin. […] Volume of the lesion before treatment: 26.79 cm^3; volume of the lesion after treatment: 0.00 cm^3.

Molecule | outcome of sclerotherapy ([1]; 7 sessions of ethanol sclerotherapy, without electric pulses) | functionality of nerves ([1]; 2 sessions of electrosclerotherapy, finger electrode, 2 mg of Bleomycin per session, 3 years follow-up) | clinical improvement ([2]; after an average of 3.7 months and 1.12 sessions per patient) | decrease in lesion volume on magnetic resonance imaging (average) ([2]; bleomycin in combination with reversible electroporation, average 3.7 months and 1.12 sessions per patient) | magnetic resonance imaging outcome of the malformation ([3]; custom geometry electrodes, 3 months after one session of electrosclerotherapy) | adverse events ([3]; one electrosclerotherapy session) | volume of the lesion after treatment ([3]; one electrosclerotherapy session, volume before treatment 26.79 cm^3)
CCO [ethanol] | unsuccessfully treated | – | – | – | – | – | –
bleomycin | – | Functionality of nerves is preserved | clinical improvement in all patients | 86% | complete resolution of the malformation | No documented adverse events | 0.00 cm^3
